Results published in US11019818B2, “Herbicidal 3-substituted lactams” (FMC Corporation, priority 2017, dated 2021).

Assays:
Format in all cases: in vivo
[1] = system: foxtail, green (green foxtail, Setaria viridis); test: Test A postemergence, green foxtail; conditions: 0 to 100 scale (0 no effect, 100 complete control), approx. 10 d
From the text: (§1) Seeds of plant species selected from barnyardgrass (Echinochloa crus-galli), kochia (Kochia scoparia), ragweed (common ragweed, Ambrosia elatior), ryegrass, Italian (Italian ryegrass, Lolium multiflorum), foxtail, green (green foxtail, Setaria viridis), and pigweed (Amaranthus retroflexus) were planted into a blend of loam soil and sand and treated preemergence with a directed soil spray using test chemicals formulated in a non-phytotoxic solvent mixture which included a surfactant. At the same time, plants selected from these weed species and also wheat (Triticum aestivum), corn (Zea mays), blackgrass (Alopecurus myosuroides), and galium (catchweed bedstraw, Galium aparine) were planted in pots containing the same blend of loam soil and sand and treated with postemergence applications of test chemicals formulated in the same manner. Plants ranged in height from 2 to 10 cm and were in the one- to two-leaf stage for the postemergence treatment. Treated plants and untreated controls were maintained in a greenhouse for approximately 10 d, after which time all treated plants were compared to untreated controls and visually evaluated for injury. Plant response ratings, summarized in Table A, are based on a 0 to 100 scale where 0 is no effect and 100 is complete control. A dash (-) response means no test result.

[2] = system: ragweed (common ragweed, Ambrosia elatior); test: Test A postemergence, ragweed; conditions: 0 to 100 scale (0 no effect, 100 complete control), approx. 10 d
From the text: as §1

[3] = system: wheat (Triticum aestivum); test: Test A postemergence, wheat; conditions: 0 to 100 scale (0 no effect, 100 complete control), approx. 10 d
From the text: as §1

[4] = system: pigweed (Amaranthus retroflexus); test: Test A postemergence, pigweed; conditions: 0 to 100 scale (0 no effect, 100 complete control), approx. 10 d
From the text: as §1

[5] = system: barnyardgrass (Echinochloa crus-galli); test: Test B flooded paddy test, barnyardgrass; conditions: Flood, 250 g ai/ha; applied to paddy water at 2-leaf stage; visual rating after 13 to 15 d; scale 0 to 100, 0 is no effect, 100 is complete control
Procedure: (§2) Plant species in the flooded paddy test selected from rice (Oryza sativa), sedge, umbrella (small-flower umbrella sedge, Cyperus difformis), ducksalad (Heteranthera limosa), and barnyardgrass (Echinochloa crus-galli) were grown to the 2-leaf stage for testing. At time of treatment, test pots were flooded to 3 cm above the soil surface, treated by application of test compounds directly to the paddy water, and then maintained at that water depth for the duration of the test. Treated plants and controls were maintained in a greenhouse for 13 to 15 d, after which time all species were compared to controls and visually evaluated. Plant response ratings, summarized in Table B, are based on a scale of 0 to 100 where 0 is no effect and 100 is complete control. A dash (-) response means no test result.

[6] = system: foxtail, green (green foxtail, Setaria viridis); test: Test A preemergence, green foxtail; conditions: 0 to 100 scale (0 no effect, 100 complete control), approx. 10 d
From the text: as §1

[7] = system: corn (Zea mays); test: Test A postemergence, corn; conditions: 0 to 100 scale (0 no effect, 100 complete control), approx. 10 d
From the text: as §1

[8] = system: kochia (Kochia scoparia); test: Test A postemergence, kochia; conditions: 0 to 100 scale (0 no effect, 100 complete control), approx. 10 d
From the text: as §1

[9] = system: blackgrass (Alopecurus myosuroides); test: Test A postemergence, blackgrass; conditions: 0 to 100 scale (0 no effect, 100 complete control), approx. 10 d
From the text: as §1

[10] = system: barnyardgrass (Echinochloa crus-galli); test: Test A postemergence, barnyardgrass; conditions: 0 to 100 scale (0 no effect, 100 complete control), approx. 10 d
From the text: as §1

[11] = system: ryegrass, Italian (Italian ryegrass, Lolium multiflorum); test: Test A preemergence, Italian ryegrass; conditions: 0 to 100 scale (0 no effect, 100 complete control), approx. 10 d
From the text: as §1

[12] = system: ryegrass, Italian (Italian ryegrass, Lolium multiflorum); test: Test A postemergence, Italian ryegrass; conditions: 0 to 100 scale (0 no effect, 100 complete control), approx. 10 d
From the text: as §1

[13] = system: barnyardgrass (Echinochloa crus-galli); test: Test A preemergence, barnyardgrass; conditions: 0 to 100 scale (0 no effect, 100 complete control), approx. 10 d
From the text: as §1

[14] = system: ducksalad (Heteranthera limosa); test: Test B flooded paddy test, ducksalad; conditions: Flood, 250 g ai/ha; applied to paddy water at 2-leaf stage; visual rating after 13 to 15 d; scale 0 to 100, 0 is no effect, 100 is complete control
Procedure: as §2

[15] = system: sedge, umbrella (small-flower umbrella sedge, Cyperus difformis); test: Test B flooded paddy test, umbrella sedge; conditions: Flood, 250 g ai/ha; applied to paddy water at 2-leaf stage; visual rating after 13 to 15 d; scale 0 to 100, 0 is no effect, 100 is complete control
Procedure: as §2

[16] = system: pigweed (Amaranthus retroflexus); test: Test A preemergence, pigweed; conditions: 0 to 100 scale (0 no effect, 100 complete control), approx. 10 d
From the text: as §1

[17] = system: rice (Oryza sativa); test: Test B flooded paddy test, rice; conditions: Flood, 250 g ai/ha; applied to paddy water at 2-leaf stage; visual rating after 13 to 15 d; scale 0 to 100, 0 is no effect, 100 is complete control
Procedure: as §2

[18] = system: kochia (Kochia scoparia); test: Test A preemergence, kochia; conditions: 0 to 100 scale (0 no effect, 100 complete control), approx. 10 d
From the text: as §1

[19] = system: ragweed (common ragweed, Ambrosia elatior); test: Test A preemergence, ragweed; conditions: 0 to 100 scale (0 no effect, 100 complete control), approx. 10 d
From the text: as §1

[20] = system: galium (catchweed bedstraw, Galium aparine); test: Test A postemergence, galium; conditions: 0 to 100 scale (0 no effect, 100 complete control), approx. 10 d
From the text: as §1

| Structure (SMILES) | Plant response rating, Foxtail, Green ([1]; 31 g ai/ha) | Plant response rating, Foxtail, Green ([1]; 125 g ai/ha) | Plant response rating, Ragweed ([2]; 31 g ai/ha) | Plant response rating, Ragweed ([2]; 125 g ai/ha) | Plant response rating, Wheat ([3]; 31 g ai/ha) | Plant response rating, Wheat ([3]; 125 g ai/ha) | Plant response rating, Pigweed ([4]; 31 g ai/ha) | Plant response rating, Pigweed ([4]; 125 g ai/ha) | Plant response rating, Barnyardgrass [5] | Plant response rating, Foxtail, Green ([6]; 31 g ai/ha) | Plant response rating, Foxtail, Green ([6]; 125 g ai/ha) | Plant response rating, Corn ([7]; 31 g ai/ha) | Plant response rating, Corn ([7]; 125 g ai/ha) | Plant response rating, Kochia ([8]; 31 g ai/ha) | Plant response rating, Kochia ([8]; 125 g ai/ha) | Plant response rating, Blackgrass ([9]; 31 g ai/ha) | Plant response rating, Blackgrass ([9]; 125 g ai/ha) | Plant response rating, Barnyardgrass ([10]; 31 g ai/ha) | Plant response rating, Barnyardgrass ([10]; 125 g ai/ha) | Plant response rating, Ryegrass, Italian ([11]; 31 g ai/ha) | further results |
| --- | --- | --- | --- | --- | --- | --- | --- | --- | --- | --- | --- | --- | --- | --- | --- | --- | --- | --- | --- | --- | --- |
| CN(C)CC1(C(=O)Nc2cccc(F)c2F)C(=O)N(C)CC1c1ccc(C(F)(F)F)cc1 (stereo not drawn) [Compound 9] | 50 | 90 | 30 | 30 | 30 | 60 | 30 | 80 | 65 | 90 | 90 | 40 | 50 | 50 | 70 | 50 | 60 | 70 | 90 | 60 | Plant response rating, Ryegrass, Italian ([11]; 125 g ai/ha): 80; Plant response rating, Ryegrass, Italian ([12]; 31 g ai/ha): 50; Plant response rating, Ryegrass, Italian ([12]; 125 g ai/ha): 60; Plant response rating, Barnyardgrass ([13]; 31 g ai/ha): 90; Plant response rating, Barnyardgrass ([13]; 125 g ai/ha): 90; Plant response rating, Ducksalad [14]: 95; Plant response rating, Sedge, Umbrella [15]: 0; Plant response rating, Pigweed ([16]; 31 g ai/ha): 70; Plant response rating, Pigweed ([16]; 125 g ai/ha): 80; Plant response rating, Rice [17]: 0; Plant response rating, Kochia ([18]; 31 g ai/ha): 30; Plant response rating, Kochia ([18]; 125 g ai/ha): 70; Plant response rating, Ragweed ([19]; 31 g ai/ha): 0; Plant response rating, Ragweed ([19]; 125 g ai/ha): 60; Plant response rating, Galium ([20]; 31 g ai/ha): 60; Plant response rating, Galium ([20]; 125 g ai/ha): 60 |
| CC(=O)[C@@]1(C(=O)Nc2cccc(F)c2F)C(=O)N(C)C[C@@H]1c1ccc(C(F)(F)F)cc1 [Compound 1, (3S,4R)-3-acetyl-N-(2,3-difluorophenyl)-1-methyl-2-oxo-4-[4-(trifluoromethyl)phenyl]-3-pyrrolidinecarboxamide] | 50 | 90 | 0 | 40 | 20 | 50 | 30 | 80 | 70 | 90 | 90 | 20 | 80 | 20 | 70 | 0 | 50 | 70 | 90 | 30 | Plant response rating, Ryegrass, Italian ([11]; 125 g ai/ha): 60; Plant response rating, Ryegrass, Italian ([12]; 31 g ai/ha): 60; Plant response rating, Ryegrass, Italian ([12]; 125 g ai/ha): 80; Plant response rating, Barnyardgrass ([13]; 31 g ai/ha): 80; Plant response rating, Barnyardgrass ([13]; 125 g ai/ha): 90; Plant response rating, Ducksalad [14]: 90; Plant response rating, Sedge, Umbrella [15]: 0; Plant response rating, Pigweed ([16]; 31 g ai/ha): 50; Plant response rating, Pigweed ([16]; 125 g ai/ha): 90; Plant response rating, Rice [17]: 0; Plant response rating, Kochia ([18]; 31 g ai/ha): 40; Plant response rating, Kochia ([18]; 125 g ai/ha): 80; Plant response rating, Ragweed ([19]; 31 g ai/ha): 20; Plant response rating, Ragweed ([19]; 125 g ai/ha): 70; Plant response rating, Galium ([20]; 31 g ai/ha): 50; Plant response rating, Galium ([20]; 125 g ai/ha): 60 |
| CCNC(=O)C1(C(=O)Nc2cccc(F)c2F)C(=O)N(C)CC1c1ccc(C(F)(F)F)cc1 (stereo not drawn) [Compound 7] | 0 | 20 | 0 | 0 | 0 | 0 | 10 | 30 | 0 | 0 | 80 | 0 | 0 | 0 | 0 | 0 | 0 | 0 | 10 | 0 | Plant response rating, Ryegrass, Italian ([11]; 125 g ai/ha): 0; Plant response rating, Ryegrass, Italian ([12]; 31 g ai/ha): 0; Plant response rating, Ryegrass, Italian ([12]; 125 g ai/ha): 10; Plant response rating, Barnyardgrass ([13]; 31 g ai/ha): 0; Plant response rating, Barnyardgrass ([13]; 125 g ai/ha): 70; Plant response rating, Ducksalad [14]: 75; Plant response rating, Sedge, Umbrella [15]: 0; Plant response rating, Pigweed ([16]; 31 g ai/ha): 0; Plant response rating, Pigweed ([16]; 125 g ai/ha): 10; Plant response rating, Rice [17]: 30; Plant response rating, Kochia ([18]; 31 g ai/ha): 0; Plant response rating, Kochia ([18]; 125 g ai/ha): 0; Plant response rating, Ragweed ([19]; 31 g ai/ha): 0; Plant response rating, Ragweed ([19]; 125 g ai/ha): 0; Plant response rating, Galium ([20]; 31 g ai/ha): 0; Plant response rating, Galium ([20]; 125 g ai/ha): 30 |
| CC(=O)OC[C@@]1(C(=O)Nc2cccc(F)c2F)C(=O)N(C)C[C@@H]1c1ccc(C(F)(F)F)cc1 [Compound 2, (3S,4R)-3-[(acetyloxy)methyl]-N-(2,3-difluorophenyl)-1-methyl-2-oxo-4-[4-(trifluoromethyl)phenyl]-3-pyrrolidincarboxamide] | 20 | 70 | 0 | 40 | 0 | 20 | 20 | 40 | 65 | 60 | 90 | 0 | 40 | 0 | 40 | 0 | 10 | 0 | 50 | 0 | Plant response rating, Ryegrass, Italian ([11]; 125 g ai/ha): 10; Plant response rating, Ryegrass, Italian ([12]; 31 g ai/ha): 20; Plant response rating, Ryegrass, Italian ([12]; 125 g ai/ha): 50; Plant response rating, Barnyardgrass ([13]; 31 g ai/ha): 50; Plant response rating, Barnyardgrass ([13]; 125 g ai/ha): 80; Plant response rating, Ducksalad [14]: 95; Plant response rating, Sedge, Umbrella [15]: 0; Plant response rating, Pigweed ([16]; 31 g ai/ha): 20; Plant response rating, Pigweed ([16]; 125 g ai/ha): 80; Plant response rating, Rice [17]: 30; Plant response rating, Kochia ([18]; 31 g ai/ha): 20; Plant response rating, Kochia ([18]; 125 g ai/ha): 50; Plant response rating, Ragweed ([19]; 31 g ai/ha): 0; Plant response rating, Ragweed ([19]; 125 g ai/ha): 30; Plant response rating, Galium ([20]; 31 g ai/ha): 0; Plant response rating, Galium ([20]; 125 g ai/ha): 40 |
